Laboratory results: EP3892734B1, “SCREENING METHODS AND THERAPEUTIC APPLICATIONS BASED ON BACTERIAL MOTILITY INHIBITION” (Ludwig-Maximilians-Universität München, priority 2020, dated 2021)
Converted amounts (≈) assume the structure as drawn. “And” between values parts separate entries of the source, which are not always exact repeats. Equal entries are not always repeated. “Also recorded” adds a separate entry of the source. Where two headings read alike, the source gives them in different places.

Tests used:
[1] = tested on: H. pylori N6; assay: vitality / metabolic (respiratory inhibition) counter-screen; type: cell-based, Helicobacter pylori; details: > 100% indicates no inhibition
[2] = tested on: H. pylori flaA-luciferase reporter strain N6; assay: microbe, parasite or virus in culture; type: cell-based, Helicobacter pylori; details: for inhibitory activity in luciferase reporter assay: result in words; for Weak activity (% of non-inhibited control): flaA-luciferase reporter strain N6, IC50 not determined
Text: The H. pylori flaA promoter was fused with a luciferase operon (luxAB) from Vibrio harveyi in a H. pylori suicide plasmid (Niehus, Ye, Suerbaum, & Josenhans, 2002). The flaA reporter fusion was recombined into the H. pylori chromosome and the resulting strain tested to be strongly luminescence positive. The reporter strain (N6 flaA-lux4B) activated luminescence to about 40,000 to 60,000 counts per second using luciferase substrate at an OD600 of 0.8 (mid-log phase) in liquid culture. The negative control value of a non-reporter strain or reporter strain without luminescence substrate was close to zero. […] The Z-Factor (Zhang et al., 1999) determined for the assay with various bacterial inhibitors measured in quadruplicates or triplicates was routinely between 0.6 and 0.7, with a confidence interval of 95%.
H. pylori luminescence reporter strains were passaged on blood agar plates less than 22 hours prior to the start of the experiment. The passage number for these assays was not higher than five to preserve the strain's properties and genetic stability. Luciferase reaction buffer was prepared as follows: 50 mM disodium phosphate (Na2HPO4) and 2% BSA were dissolved in HPLC water, filter sterilized, aliquoted and frozen at - 20°C.
Bacteria were harvested in brain-heart infusion medium (BHI, 3% yeast extract with 5% horse serum added) and adjusted to an OD600 of 0.8 at room temperature. 50 µl of the bacterial suspension were added per well of a 96 well plate (non-binding, Greiner Bio-One 655901). 2 µl of each of the test compounds (provided as a 10 mM DMSO solution) were added to the sample wells. The same amount of pure, diluted DMSO was added to the control wells for a concentration of a maximum of 4% DMSO per well, since higher concentrations will interfere with metabolic functions of H. pylori and cause false negative results. The microwell plate was incubated inside a sterile sealed PM Gas Bag (BIOLOG #3032) together with a CampyGen Compact pack (Oxoid) to generate microaerobic conditions at 37°C and with shaking at 175 rpm for 4 h.
Shortly before taking the measurement, the luciferase substrate was prepared by diluting the luminescence substrate decanal (10% stock, Sigma Aldrich) at a 1 :2,000 dilution in luciferase reaction buffer. 60 µl of the substrate were added per well of a white 96 microwell plate (Thermo Scientific #236105) without the lid.
For the final luciferase measurement, 10 µl of bacterial solution were transferred with the epMotion 96 (Eppendorf) simultaneously to the wells containing the luciferase substrate and incubated on a microwell plate shaker for 10 s to lyse the bacteria. The measurements were recorded with a Perkin Elmer Victor 3/WNallac 1420 plate reader (luminometry, measurement time: 0.5 sec) and integrated to counts per sec. For the background measurement, 10 µl sterile medium containing 4% DMSO was added to the wells. For each measurement, at least four luciferase reporter positive control wells (without inhibitory compound) and four negative control wells (background without bacteria) were run on the same day and under the same assay conditions in parallel.

[3] = tested on: H. pylori; assay: therapeutic treatment in chronic H. pylori mouse infection model (cfu counts, cagL PCR); type: in vivo, C57B/L6 mice
Description: 6-8 weeks old specific pathogen-free C57B/L6 mice were obtained from Charles River Laboratories. They were acclimatized to the new surroundings for one week before starting the assays. For the whole duration of the experiment, mice had access to sterile chow and sterile water ad libitum. In week one of the experiment, H. pylori was administered at 3×10^8 bacteria per mouse per inoculum (100 µl) on two days with one day of break in between. The proof-of-principle treatment was started two weeks after the end of the inoculation week, assuming a stable infection at this time point. The mice were treated in separate groups (8-14 animals per group), as outlined in the results, with compound(s), antibiotic (metronidazole at 14.3 mg/kg/day), a combination of both antibiotic and compound (for concentrations, see Results), or mock-treated once daily over seven consecutive days by intra-gastric gavage. After the treatment week, the mice were kept for another two weeks under normal housing and feeding conditions with sterilized chow and sterile water ad libitum. At the end of the assay period (week seven), the mice were necropsied by cervical dislocation under CO2 anesthesia. The animal experiments were authorized under German federal law by the LAVES (Lower Saxony Government Authority).
Then, BL2 was further tested for therapeutic efficacy in a mouse model of chronic H. pylori infection (Fig. 5). Six groups of mice (10 mice per group in each of the four infected and/or treated groups, and six mice in both of the control groups) were established in this mouse treatment trial. For the treatment groups, mice were infected in week one (using ca. 3×10^8 bacteria per animal; Methods), and the chronic infection was manifested for two more weeks. The once-daily treatment (intragastric gavage) started in week four on seven consecutive days. For the treatment groups, three H. pylori-infected groups were evaluated in parallel. One dose of treatment was given daily.
Group one was treated with metronidazole (14.3 mg/kg/day) only, an established anti-H. pylori antibiotic. The antibiotic concentration corresponds to concentrations routinely used in human treatment. Group two was treated with metronidazole (dosed at 14.3 mg/kg/day) and BL2 (10 mg/kg/day) in combination, and group three received BL2 (10 mg/kg/day) only. In addition, one infected and mock-treated group was kept as positive control, and two mock-infected groups were set aside, one for administering BL2 only (10 mg/kg/day; microbiota compound control) and one which was mock-infected and mock-treated (microbiota null control).
The read-out of successful treatment was the reduction of colony-forming units (cfus) of bacteria in infected and treated mice, over infected, non-treated, mice, at the end of the experiment. […] All mice in the infected positive control group were colonized (both cfu counts and PCR-positive), although the cfu counts in three positive animals were rather low.

[4] = Helicobacter pylori, H. pylori flaA-luciferase reporter strain N6, Table 6
[5] = H. pylori flaA-luciferase reporter strain N6, Table 6

Compound	IC50 [2, 4] [µg/mL]	inhibitory activity in luciferase reporter assay [2]	further results
Cn1c(CSC(=N)N)c(Br)c(=O)n1-c1ccccc1 [DJ-1, (4-bromo-2-methyl-5-oxo-1-phenyl-2,5-dihydro-1H-pyrazol-3-yl)methyl carbamimidothioate]	< 4.5		Metabolic assay (% of control) [1]: 107,7 % of control; Luciferase assay (% of control) ([2]; H. pylori screen): 1,4 % of control; IC50 ([2]; Helicobacter pylori, read-out: IC50 (luciferase assay), luciferase flagellar reporter assay, Table 3): 3.05 µg/mL and 10.3 µM
Cn1c(CS)c(Br)c(=O)n1-c1ccccc1 [DJ-2, 4-bromo-5-(mercaptomethyl)-1-methyl-2-phenyl-1,2-dihydro-3H-pyrazol-3-one]			IC50 [2, 5]: 0.44 µg/mL (≈ 1.47 µM)
Cn1c(CSCCO)c(Br)c(=O)n1-c1ccccc1 [DJ-3, 4-bromo-5-(((2-hydroxyethyl)thio)methyl)-1-methyl-2-phenyl-1,2-dihydro-3H-pyrazol-3-one]		No inhibitory activity was detectable	IC50 [2, 5]: No IC50
Cn1c(CN)c(Br)c(=O)n1-c1ccccc1 [DJ-4, 5-(aminomethyl)-4-bromo-1-methyl-2-phenyl-1,2-dihydro-3H-pyrazol-3-one]		No inhibitory activity was detectable	IC50 [2, 5]: No IC50
Cc1ccc(-n2c(=O)c(Br)c(CSC(=N)N)n2C)cc1 [DJ-5, (4-bromo-2-methyl-5-oxo-1-(p-tolyl)-2,5-dihydro-1H-pyrazol-3-yl)methyl carbamimidothioate]	< 4.5		
Cc1cc(C)cc(-n2c(=O)c(Br)c(CSC(=N)N)n2C)c1 [DJ-6, (4-bromo-1-(3',5'-dimethylphenyl)-2-methyl-5-oxo-2,5-dihydro-1H-pyrazol-3-yl)methyl carbamimidothioate]	< 4.5		
CC(C)c1ccc(-n2c(=O)c(Br)c(CSC(=N)N)n2C)cc1 [DJ-7, (4-bromo-1-(4'-isopropylphenyl)-2-methyl-5-oxo-2,5-dihydro-1H-pyrazol-3-vl)methyl carbamimidothioate]	< 4.5		
Cn1c(CSC(=N)N)c(Br)c(=O)n1-c1ccc(-c2ccccc2)cc1 [DJ-8, (1-([1',1"-biphenyl]-4'-yl)-4-bromo-2-methyl-5-oxo-2,5-dihydro-1H-pyrazol-3-yl)methyl carbamimidothioate]	< 4.5		
Cn1c(CSC(=N)N)c(Br)c(=O)n1-c1ccc(Cl)cc1 [DJ-9, (4-bromo-1-(4'-chlorophenyl)-2-methyl-5-oxo-2,5-dihydro-1H-pyrazol-3-vl)methyl carbamimidothioate]	< 4.5		
Cn1c(CSC(=N)N)c(Br)c(=O)n1-c1ccc(C(F)(F)F)cc1 [DJ-10, (4-bromo-2-methyl-5-oxo-1-(4'-(trifluoromethyl)phenyl)-2,5-dihvdro-1H-pyrazol-3-yl)methyl carbamimidothioate]	10.8 (≈ 26.5 µM)		
CCn1c(CSC(=N)N)c(Br)c(=O)n1-c1ccccc1 [DJ-11]	10.6 (≈ 29.7 µM)		
CCn1c(CS)c(Br)c(=O)n1-c1ccccc1 [DJ-12]	< 4.5		
Cn1c(CSC(=N)N)c(Br)c(=O)n1-c1ccccn1 [DJ-13]		detectable yet weaker inhibitory activity	Weak activity (% of non-inhibited control) [2]: Weak activity (+/- 50 % of non-inhibited control) (IC50 not determined)
Cc1ccc(-n2c(=O)c(Br)c(CSCc3c(Br)c(=O)n(-c4ccc(C)cc4)n3C)n2C)cc1 [DJ-14, 5,5'-(thiobis(methylene))bis(4-bromo-1-methyl-2-(p-tolyl)-1,2-dihydro-3H-pyrazol-3-one)]		detectable yet weaker inhibitory activity	Weak activity (% of non-inhibited control) [2]: Weak activity (+/- 90 % of control) (IC50 not determined)
CC1(C)S[C@@H]2[C@H](NC(=O)[C@H](N)c3ccccc3)C(=O)N2[C@H]1C(=O)O [ampicillin, reference compound]		did not alter the readings in the luciferase reporter assay	
Cc1ncc([N+](=O)[O-])n1CCO [metronidazole, reference compound]			reduction of colony-forming units (cfus) / bacterial loads in stomach ([3]; BL2 10 mg/kg/day, metronidazole 14.3 mg/kg/day, once daily, 7 days, intragastric gavage, versus infected control): significantly reduced bacterial counts; also recorded: left no bacterial counts; gene-specific (cagL) PCR signal in stomach homogenates ([3]; two weeks post-treatment): strong residual bacterial load; also recorded: all mice still had detectable specific bacterial (PCR) signal; also recorded: still readily detectable by PCR
C=C(C)[C@H]1Cc2c(ccc3c2O[C@@H]2COc4cc(OC)c(OC)cc4[C@@H]2C3=O)O1 [rotenone, reference compound]		inhibited the luminescence reporter activity	
carbonyl cyanide m-chlorophenyl hydrazine [CCCP, reference compound]		inhibited the luminescence reporter activity	
